Measurements taken from patent publication US7026339B2, “Inhibitors of HCV NS5B polymerase” (priority 2003, dated 2006).

Each molecule was assayed on HuH-7 replicon cells 5–15 and 9–13 (HCV replication) (assay: Inhibition of viral replication in HuH-7 replicon cells (HCV RNA / GAPDH RNA by multiplex RT-PCR)). Settings: Hepatitis C virus, 72 h; inhibiting 50% of replication; HuH-7 replicon cells, 3 days; read-out: IC50.
Assay type: cell-based
Procedure, shortened: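 Replicon cells seeded at 7×10^3 cells/well, grown 24 h, then exposed 3 days at 37 °C to compound at final 100 μM–1 μM (1% DMSO). Multiplex TaqMan RT-PCR on total RNA quantified HCV 5′-UTR and GAPDH RNA against a standard curve; HCV/GAPDH ratio reported as percent of untreated control.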

SMILES	IC50
COc1cccc(CC(=O)N/N=C/c2ccccc2OS(=O)(=O)c2ccc3nsnc3c2)c1 [Compound 182, 2-((E)-{2-[2-(3-methoxyphenyl)acetyl]hydrazono}methyl)-phenyl 2,1,3-benzothiadiazole-5-sulfonate]	< 5 µM
CCCCCc1ccc(S(=O)(=O)Oc2ccccc2/C=N/NC(=O)Cc2cccc(OC)c2)cc1 [Compound 183, 2-((E)-{2-[2-(3-methoxyphenyl)acetyl]hydrazono}methyl)-phenyl 4-pentylbenzenesulfonate]	< 5 µM
CCCc1ccc(S(=O)(=O)Oc2ccccc2/C=N/NC(=O)Cc2cccc(OC)c2)cc1 [Compound 184, 2-((E)-{2-[2-(3-methoxyphenyl)acetyl]hydrazono}methyl)-phenyl 4-propylbenzenesulfonate]	< 5 µM
COc1cccc(CC(=O)N/N=C/c2ncccc2OS(=O)(=O)c2ccc(C)cc2)c1 [Compound 185, 2-((E)-{2-[2-(3-methoxyphenyl)acetyl]hydrazono}methyl)-pyridin-3-yl 4-methylbenzenesulfonate]	< 5 µM
COc1cccc(CC(=O)N/N=C/c2ccccc2OS(=O)(=O)c2ccc(OC(C)C)cc2)c1 [Compound 186, 2-((E)-{2-[2-(3-methoxyphenyl)acetyl]hydrazono}methyl)-phenyl 4-isopropoxybenzenesulfonate]	< 5 µM
COc1cccc(CC(=O)N/N=C/c2ccccc2OS(=O)(=O)c2cc(Cl)sc2Cl)c1 [Compound 187, 2-((E)-{2-[2-(3-methoxyphenyl)acetyl]hydrazono}methyl)-phenyl 2,5-dichlorothiophene-3-sulfonate]	< 5 µM
COc1cccc(CC(=O)N/N=C/c2ccccc2OS(=O)(=O)c2cnn(-c3ccccc3)c2C)c1 [Compound 188, 2-((E)-{2-[2-(3-methoxyphenyl)acetyl]hydrazono}methyl)-phenyl 5-methyl-1-phenyl-1H-pyrazole-4-sulfonate]	< 5 µM
COc1cccc(CC(=O)N/N=C/c2ccccc2OS(=O)(=O)Cc2cccc(C(F)(F)F)c2)c1 [Compound 189, 2-((E)-{2-[2-(3-methoxyphenyl)acetyl]hydrazono}methyl)-phenyl [3-(trifluoromethyl)phenyl]methanesulfonate]	> 50 µM
COc1cccc(CC(=O)N/N=C/c2ccccc2OS(=O)(=O)c2ccc(Br)s2)c1 [Compound 190, 2-((E)-{2-[2-(3-methoxyphenyl)acetyl]hydrazono}methyl)-phenyl 5-bromothiophene-2-sulfonate]	< 5 µM
COc1cccc(CC(=O)N/N=C/c2ccccc2OS(=O)(=O)c2ccc(Oc3ccccc3)cc2)c1 [Compound 191, 2-((E)-{2-[2-(3-methoxyphenyl)acetyl]hydrazono}methyl)-phenyl 4-phenoxybenzenesulfonate]	> 50 µM
COc1cccc(CC(=O)N/N=C/c2ccccc2OS(=O)(=O)c2ccc(-c3cc(C(F)(F)F)on3)s2)c1 [Compound 192, 2-((E)-{2-[2-(3-methoxyphenyl)acetyl]hydrazono}methyl)-phenyl 5-[5-(trifluoromethyl)isoxazol-3-yl]thiophene-2-sulfonate]	< 5 µM
COc1cccc(CC(=O)N/N=C/c2c(Cl)cccc2OS(=O)(=O)c2ccc(C(F)(F)F)cc2)c1 [Compound 193, 3-chloro-2-((E)-{[(3-methoxyphenyl)acetyl]hydrazono}methyl)-phenyl 4-(trifluoromethyl)benzenesulfonate]	< 5 µM
O=C(Cc1cccc(Cl)c1)N/N=C/c1c(Cl)cccc1OS(=O)(=O)c1ccc(C(F)(F)F)cc1 [Compound 194, 3-chloro-2-((E)-{[(3-chlorophenyl)acetyl]hydrazono}methyl)-phenyl 4-(trifluoromethyl)benzenesulfonate]	< 5 µM
COc1cccc(CC(=O)N/N=C/c2ccccc2OS(=O)(=O)c2ccc(C(C)=O)cc2)c1 [Compound 195, 2-((E)-{2-[2-(3-methoxyphenyl)acetyl]hydrazono}methyl)-phenyl 4-acetylbenzenesulfonate]	< 5 µM
COc1cccc(CC(=O)N/N=C/c2ccccc2OS(=O)(=O)c2ccc(-n3cccn3)cc2)c1 [Compound 196, 2-((E)-{2-[2-(3-methoxyphenyl)acetyl]hydrazono}methyl)-phenyl 4-(1H-pyrazol-1-yl)benzenesulfonate]	< 5 µM
COc1cccc(CC(=O)N/N=C/c2ccccc2OS(=O)(=O)c2ccc(-c3cnco3)cc2)c1 [Compound 197, 2-((E)-{2-[2-(3-methoxyphenyl)acetyl]hydrazono}methyl)-phenyl 4-(1,3-oxazol-5-yl)benzenesulfonate]	< 5 µM
CCC(C)(C)c1ccc(S(=O)(=O)Oc2ccccc2/C=N/NC(=O)Cc2cccc(OC)c2)cc1 [Compound 198, 2-((E)-{2-[2-(3-methoxyphenyl)acetyl]hydrazono}methyl)-phenyl 4-(1,1-dimethylpropyl)benzenesulfonate]	< 5 µM
CCCCOc1ccc(S(=O)(=O)Oc2ccccc2/C=N/NC(=O)Cc2cccc(OC)c2)cc1 [Compound 199, 2-((E)-{2-[2-(3-methoxyphenyl)acetyl]hydrazono}methyl)-phenyl 4-butoxybenzenesulfonate]	< 5 µM

SMILES	IC50
COc1cccc(CC(=O)N/N=C/c2ccccc2OS(=O)(=O)c2ccc(-c3cnco3)s2)c1 [Compound 200, 2-((E)-{2-[2-(3-methoxyphenyl)acetyl]hydrazono}methyl)-phenyl 5-(1,3-oxazol-5-yl)thiophene-2-sulfonate]	< 5 µM
COc1cccc(CC(=O)N/N=C/c2ccccc2OS(=O)(=O)c2ccc(Oc3ccccc3)nc2)c1 [Compound 201, 2-((E)-{2-[2-(3-methoxyphenyl)acetyl]hydrazono}methyl)-phenyl 6-phenoxypyridine-3-sulfonate]	< 5 µM
COc1cccc(CC(=O)N/N=C/c2ccccc2OS(=O)(=O)c2ccc(Oc3ccc(F)cc3)cc2)c1 [Compound 202, 2-((E)-{2-[2-(3-methoxyphenyl)acetyl]hydrazono}methyl)-phenyl 4-(4-fluorophenoxy)benzenesulfonate]	> 50 µM
COc1cccc(CC(=O)N/N=C/c2c(C)cccc2OS(=O)(=O)c2ccc(C(F)(F)F)cc2)c1 [Compound 203, 2-((E)-{[(3-methoxyphenyl)acetyl]hydrazono}methyl)-3-methylphenyl 4-(trifluoromethyl)benzenesulfonate]	< 5 µM
COc1cccc(CC(=O)N/N=C/c2c(C)cccc2OS(=O)(=O)c2ccc(C)cc2)c1 [Compound 204, 2-((E)-{[(3-methoxyphenyl)acetyl]hydrazono}methyl)-3-methylphenyl 4-methylbenzenesulfonate]	< 5 µM
Cc1ccc(S(=O)(=O)Oc2cccc(F)c2/C=N/NC(=O)Cc2cccc(Cl)c2)cc1 [Compound 205, 2-((E)-{[(3-chlorophenyl)acetyl]hydrazono}methyl)-3-fluorophenyl 4-methylbenzenesulfonate]	5 to 50 µM
O=C(Cc1cccc(Cl)c1)N/N=C/c1c(F)cccc1OS(=O)(=O)c1ccc(C(F)(F)F)cc1 [Compound 206, 2-((E)-{[(3-chlorophenyl)acetyl]hydrazono}methyl)-3-fluorophenyl 4-(trifluoromethyl)benzenesulfonate]	< 5 µM
COc1cccc(CC(=O)N/N=C/c2c(F)cccc2OS(=O)(=O)c2ccc(C(F)(F)F)cc2)c1 [Compound 207, 3-fluoro-2-((E)-{[(3-methoxyphenyl)acetyl]hydrazono}methyl)-phenyl 4-(trifluoromethyl)benzenesulfonate]	< 5 µM
COc1cccc(CC(=O)N/N=C/c2c(F)cccc2OS(=O)(=O)c2ccc(C)cc2)c1 [Compound 208, 3-fluoro-2-((E)-{[(3-methoxyphenyl)acetyl]hydrazono}methyl)-phenyl 4-methylbenzenesulfonate]	5 to 50 µM
COc1cccc(CC(=O)N/N=C/c2ccc(Cl)cc2OS(=O)(=O)c2ccc(C)cc2)c1 [Compound 209, 5-chloro-2-((E)-{[(3-methoxyphenyl)acetyl]hydrazono}methyl)-phenyl 4-methylbenzenesulfonate]	< 5 µM
COc1cccc(CC(=O)N/N=C/c2ccc(Cl)cc2OS(=O)(=O)c2ccc(C(F)(F)F)cc2)c1 [Compound 210, 5-chloro-2-((E)-{[(3-methoxyphenyl)acetyl]hydrazono}methyl)-phenyl 4-(trifluoromethyl)benzenesulfonate]	5 to 50 µM
O=C(Cc1cccc(Cl)c1)N/N=C/c1ccc(F)cc1OS(=O)(=O)c1ccc(C(F)(F)F)cc1 [Compound 211, 2-((E)-{[(3-chlorophenyl)acetyl]hydrazono}methyl)-5-fluorophenyl 4-(trifluoromethyl)benzenesulfonate]	5 to 50 µM
Cc1ccc(S(=O)(=O)Oc2cc(F)ccc2/C=N/NC(=O)Cc2cccc(Cl)c2)cc1 [Compound 212, 2-((E)-{[(3-chlorophenyl)acetyl]hydrazono}methyl)-5-fluorophenyl 4-methylbenzenesulfonate]	< 5 µM
O=C(Cc1cccc(Cl)c1)N/N=C/c1ncccc1OS(=O)(=O)c1ccc(C(F)(F)F)cc1 [Compound 213, 2-((E)-{2-[2-(3-chlorophenyl)acetyl]hydrazono}methyl)-pyridin-3-yl 4-(trifluoromethyl)benzenesulfonate]	5 to 50 µM
COc1cccc(CC(=O)N/N=C/c2ncccc2OS(=O)(=O)c2ccc(C(F)(F)F)cc2)c1 [Compound 214, 2-((E)-{2-[2-(3-methoxyphenyl)acetyl]hydrazono}methyl)-pyridin-3-yl 4-(trifluoromethyl)benzenesulfonate]	5 to 50 µM
O=C(Cc1cccc(Cl)c1)N/N=C/c1cccnc1OS(=O)(=O)c1ccc(C(F)(F)F)cc1 [Compound 215, 3-((E)-{2-[2-(3-chlorophenyl)acetyl]hydrazono}methyl)-pyridin-2-yl 4-(trifluoromethyl)benzenesulfonate]	> 50 µM
COc1cccc(CC(=O)N/N=C/c2ccccc2OS(=O)(=O)c2ccc(N3CCOCC3)nc2)c1 [Compound 216, 2-((E)-{2-[2-(3-methoxyphenyl)acetyl]hydrazono}methyl)-phenyl 6-morpholin-4-ylpyridine-3-sulfonate]	5 to 50 µM
